Test results reported in the supplement of paper PMC10307832.

Key:
Test in all cases: relative viability (nuclei count vs DMSO), 5 days (fraction); higher = more cells survive
[1] = tested on: LCLC-103H
Procedure, shortened: (§1)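 Medians of duplicate plates are given as relative viability. That measure is the nuclei count in treated wells divided by the count in vehicle wells. Counts were taken on 4× images of lung cancer cell lines in 1536-well plates, 5 days after pin-tool dosing the day after seeding with one drug alone or a fixed anchor-drug dose plus five library-drug doses (not always all listed) in √10 steps.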

[2] = tested on: LXF-289
Procedure, shortened: as §1

[3] = tested on: NCI-H1355
Procedure, shortened: as §1

[4] = tested on: NCI-H1563
Procedure, shortened: as §1

[5] = tested on: NCI-H1651
Procedure, shortened: as §1

[6] = tested on: NCI-H1755
Procedure, shortened: as §1

[7] = tested on: NCI-H1792
Procedure, shortened: as §1

[8] = tested on: NCI-H1915
Procedure, shortened: as §1

[9] = tested on: NCI-H2170
Procedure, shortened: as §1

[10] = tested on: NCI-H2347
Procedure, shortened: as §1

[11] = tested on: NCI-H3122
Procedure, shortened: as §1

[12] = tested on: NCI-H322M
Procedure, shortened: as §1

[13] = tested on: NCI-H441
Procedure, shortened: as §1

[14] = tested on: NCI-H460
Procedure, shortened: as §1

[15] = tested on: NCI-H520
Procedure, shortened: as §1

[16] = tested on: NCI-H596
Procedure, shortened: as §1

[17] = tested on: NCI-H650
Procedure, shortened: as §1

[18] = tested on: NCI-H661
Procedure, shortened: as §1

[19] = tested on: NCI-H727
Procedure, shortened: as §1

[20] = tested on: PC-14
Procedure, shortened: as §1

[21] = tested on: RERF-LC-KJ
Procedure, shortened: as §1

[22] = tested on: SK-MES-1
Procedure, shortened: as §1

[23] = tested on: SW 900
Procedure, shortened: as §1

Oc1nc(-c2ccc(C(F)(F)F)cc2)nc2c1CSCC2 [XAV939] + COc1cccc2cc(-c3nc([C@H]4CC[C@H](C(=O)O)CC4)n4ncnc(N)c34)[nH]c12 [OSI-027] (partner 0.5 µM)
relative viability ([1]; first compound 0.08 µM): 0.534 | relative viability ([1]; first compound 0.253 µM): 0.443 | relative viability ([1]; first compound 0.8 µM): 0.463 | relative viability ([1]; first compound 2.53 µM): 0.432 | relative viability ([2]; first compound 0.08 µM): 0.817 | relative viability ([2]; first compound 0.253 µM): 0.721 | relative viability ([2]; first compound 0.8 µM): 0.746 | relative viability ([2]; first compound 2.53 µM): 0.658 | relative viability ([3]; first compound 0.08 µM): 0.396 | relative viability ([3]; first compound 0.253 µM): 0.353 | relative viability ([3]; first compound 0.8 µM): 0.368 | relative viability ([3]; first compound 2.53 µM): 0.274 | relative viability ([4]; first compound 0.08 µM): 0.844 | relative viability ([4]; first compound 0.253 µM): 0.769 | relative viability ([4]; first compound 0.8 µM): 0.708 | relative viability ([4]; first compound 2.53 µM): 0.614 | relative viability ([5]; first compound 0.08 µM): 0.925 | relative viability ([5]; first compound 0.253 µM): 0.711 | relative viability ([5]; first compound 0.8 µM): 0.838 | relative viability ([5]; first compound 2.53 µM): 0.69 | relative viability ([6]; first compound 0.08 µM): 0.731 | relative viability ([6]; first compound 0.253 µM): 0.683 | relative viability ([6]; first compound 0.8 µM): 0.739 | relative viability ([6]; first compound 2.53 µM): 0.585 | relative viability ([7]; first compound 0.08 µM): 0.82 | relative viability ([7]; first compound 0.253 µM): 0.677 | relative viability ([7]; first compound 0.8 µM): 0.839 | relative viability ([7]; first compound 2.53 µM): 0.672 | relative viability ([8]; first compound 0.08 µM): 0.707 | relative viability ([8]; first compound 0.253 µM): 0.321 | relative viability ([8]; first compound 0.8 µM): 0.597 | relative viability ([8]; first compound 2.53 µM): 0.589 | relative viability ([9]; first compound 0.08 µM): 0.749 | relative viability ([9]; first compound 0.253 µM): 0.493 | relative viability ([9]; first compound 0.8 µM): 0.643 | relative viability ([9]; first compound 2.53 µM): 0.611 | relative viability ([10]; first compound 0.08 µM): 0.571 | relative viability ([10]; first compound 2.53 µM): 0.217 | relative viability ([11]; first compound 0.08 µM): 1.08 | relative viability ([11]; first compound 0.253 µM): 0.96 | relative viability ([11]; first compound 0.8 µM): 0.91 | relative viability ([11]; first compound 2.53 µM): 0.581 | relative viability ([12]; first compound 0.08 µM): 0.615 | relative viability ([12]; first compound 0.253 µM): 0.594 | relative viability ([12]; first compound 0.8 µM): 0.504 | relative viability ([12]; first compound 2.53 µM): 0.406 | relative viability ([13]; first compound 0.08 µM): 0.657 | relative viability ([13]; first compound 0.253 µM): 0.794 | relative viability ([13]; first compound 0.8 µM): 0.697 | relative viability ([13]; first compound 2.53 µM): 0.568 | relative viability ([14]; first compound 0.08 µM): 0.904 | relative viability ([14]; first compound 0.253 µM): 0.555 | relative viability ([14]; first compound 0.8 µM): 0.745 | relative viability ([14]; first compound 2.53 µM): 0.631 | relative viability ([15]; first compound 0.08 µM): 0.262 | relative viability ([15]; first compound 0.253 µM): 0.225 | relative viability ([15]; first compound 0.8 µM): 0.224 | relative viability ([15]; first compound 2.53 µM): 0.225 | relative viability ([16]; first compound 0.08 µM): 0.803 | relative viability ([16]; first compound 0.253 µM): 0.796 | relative viability ([16]; first compound 0.8 µM): 0.768 | relative viability ([16]; first compound 2.53 µM): 0.622 | relative viability ([17]; first compound 0.08 µM): 0.52 | relative viability ([17]; first compound 0.253 µM): 0.565 | relative viability ([17]; first compound 0.8 µM): 0.493 | relative viability ([17]; first compound 2.53 µM): 0.37 | relative viability ([18]; first compound 0.08 µM): 0.701 | relative viability ([18]; first compound 0.253 µM): 0.719 | relative viability ([18]; first compound 0.8 µM): 0.696 | relative viability ([18]; first compound 2.53 µM): 0.583 | relative viability ([19]; first compound 0.08 µM): 0.696 | relative viability ([19]; first compound 0.253 µM): 0.495 | relative viability ([19]; first compound 0.8 µM): 0.744 | relative viability ([19]; first compound 2.53 µM): 0.514 | relative viability ([20]; first compound 0.08 µM): 1.09 | relative viability ([20]; first compound 0.253 µM): 0.772 | relative viability ([20]; first compound 0.8 µM): 0.725 | relative viability ([20]; first compound 2.53 µM): 0.639 | relative viability ([21]; first compound 0.08 µM): 0.607 | relative viability ([21]; first compound 0.253 µM): 0.533 | relative viability ([21]; first compound 0.8 µM): 0.464 | relative viability ([21]; first compound 2.53 µM): 0.526 | relative viability ([22]; first compound 0.08 µM): 0.576 | relative viability ([22]; first compound 0.253 µM): 0.584 | relative viability ([22]; first compound 0.8 µM): 0.631 | relative viability ([22]; first compound 2.53 µM): 0.424 | relative viability ([23]; first compound 0.08 µM): 0.779 | relative viability ([23]; first compound 0.253 µM): 0.572 | relative viability ([23]; first compound 0.8 µM): 0.687 | relative viability ([23]; first compound 2.53 µM): 0.476

O=C(O)c1ccc(-c2c[nH]c3ncc(-c4ccccc4)cc23)cc1C1CCCC1 + Cc1nc(Nc2ncc(C(=O)Nc3c(C)cccc3Cl)s2)cc(N2CCN(CCO)CC2)n1 [Dasatinib] (partner 0.075 µM)
relative viability ([1]; first compound 0.04 µM): 0.481 | relative viability ([1]; first compound 0.1265 µM): 0.426 | relative viability ([1]; first compound 0.4 µM): 0.499 | relative viability ([1]; first compound 1.265 µM): 0.545 | relative viability ([2]; first compound 0.04 µM): 0.214 | relative viability ([2]; first compound 0.1265 µM): 0.258 | relative viability ([2]; first compound 0.4 µM): 0.181 | relative viability ([2]; first compound 1.265 µM): 0.206 | relative viability ([3]; first compound 0.04 µM): 0.754 | relative viability ([3]; first compound 0.1265 µM): 0.841 | relative viability ([3]; first compound 0.4 µM): 0.664 | relative viability ([3]; first compound 1.265 µM): 0.567 | relative viability ([4]; first compound 0.04 µM): 0.455 | relative viability ([4]; first compound 0.1265 µM): 0.514 | relative viability ([4]; first compound 0.4 µM): 0.48 | relative viability ([4]; first compound 1.265 µM): 0.48 | relative viability ([5]; first compound 0.04 µM): 0.333 | relative viability ([5]; first compound 0.1265 µM): 0.5 | relative viability ([5]; first compound 0.4 µM): 0.384 | relative viability ([5]; first compound 1.265 µM): 0.3 | relative viability ([6]; first compound 0.04 µM): 0.394 | relative viability ([6]; first compound 0.1265 µM): 0.541 | relative viability ([6]; first compound 0.4 µM): 0.423 | relative viability ([6]; first compound 1.265 µM): 0.436 | relative viability ([7]; first compound 0.1265 µM): 0.8 | relative viability ([7]; first compound 0.4 µM): 0.856 | relative viability ([7]; first compound 1.265 µM): 0.847 | relative viability ([8]; first compound 0.04 µM): 0.297 | relative viability ([8]; first compound 0.1265 µM): 0.331 | relative viability ([8]; first compound 0.4 µM): 0.277 | relative viability ([8]; first compound 1.265 µM): 0.271 | relative viability ([9]; first compound 0.04 µM): 0.522 | relative viability ([9]; first compound 0.1265 µM): 0.623 | relative viability ([9]; first compound 0.4 µM): 0.529 | relative viability ([9]; first compound 1.265 µM): 0.564 | relative viability ([10]; first compound 0.04 µM): 0.275 | relative viability ([10]; first compound 0.1265 µM): 0.799 | relative viability ([10]; first compound 0.4 µM): 0.298 | relative viability ([10]; first compound 1.265 µM): 0.299 | relative viability ([11]; first compound 0.04 µM): 0.927 | relative viability ([11]; first compound 0.1265 µM): 0.858 | relative viability ([11]; first compound 0.4 µM): 0.766 | relative viability ([11]; first compound 1.265 µM): 0.812 | relative viability ([12]; first compound 0.04 µM): 0.277 | relative viability ([12]; first compound 0.1265 µM): 0.267 | relative viability ([12]; first compound 0.4 µM): 0.239 | relative viability ([12]; first compound 1.265 µM): 0.237 | relative viability ([13]; first compound 0.04 µM): 0.737 | relative viability ([13]; first compound 0.1265 µM): 0.521 | relative viability ([13]; first compound 0.4 µM): 0.575 | relative viability ([13]; first compound 1.265 µM): 0.473 | relative viability ([14]; first compound 0.04 µM): 0.566 | relative viability ([14]; first compound 0.1265 µM): 0.676 | relative viability ([14]; first compound 0.4 µM): 0.472 | relative viability ([14]; first compound 1.265 µM): 0.428 | relative viability ([15]; first compound 0.04 µM): 0.199 | relative viability ([15]; first compound 0.1265 µM): 0.203 | relative viability ([15]; first compound 0.4 µM): 0.253 | relative viability ([15]; first compound 1.265 µM): 0.222 | relative viability ([16]; first compound 0.04 µM): 0.596 | relative viability ([16]; first compound 0.1265 µM): 0.572 | relative viability ([16]; first compound 0.4 µM): 0.601 | relative viability ([16]; first compound 1.265 µM): 0.639 | relative viability ([17]; first compound 0.04 µM): 0.43 | relative viability ([17]; first compound 0.1265 µM): 0.502 | relative viability ([17]; first compound 0.4 µM): 0.405 | relative viability ([17]; first compound 1.265 µM): 0.353 | relative viability ([18]; first compound 0.04 µM): 0.852 | relative viability ([18]; first compound 0.1265 µM): 1.1 | relative viability ([18]; first compound 0.4 µM): 0.792 | relative viability ([18]; first compound 1.265 µM): 0.797 | relative viability ([19]; first compound 0.04 µM): 0.298 | relative viability ([19]; first compound 0.1265 µM): 0.398 | relative viability ([19]; first compound 0.4 µM): 0.442 | relative viability ([19]; first compound 1.265 µM): 0.364 | relative viability ([20]; first compound 0.04 µM): 0.245 | relative viability ([20]; first compound 0.1265 µM): 0.258 | relative viability ([20]; first compound 0.4 µM): 0.281 | relative viability ([20]; first compound 1.265 µM): 0.286 | relative viability ([21]; first compound 0.04 µM): 0.758 | relative viability ([21]; first compound 0.1265 µM): 0.778 | relative viability ([21]; first compound 0.4 µM): 0.783 | relative viability ([21]; first compound 1.265 µM): 0.687 | relative viability ([22]; first compound 0.04 µM): 0.406 | relative viability ([22]; first compound 0.1265 µM): 0.384 | relative viability ([22]; first compound 0.4 µM): 0.387 | relative viability ([22]; first compound 1.265 µM): 0.4 | relative viability ([23]; first compound 0.04 µM): 0.577 | relative viability ([23]; first compound 0.1265 µM): 0.712 | relative viability ([23]; first compound 0.4 µM): 0.584 | relative viability ([23]; first compound 1.265 µM): 0.52
